Publication PMC11984905, “Chiral Switch of Gadopiclenol: New Standards in MRI Probes” (Advanced Science, 2025)
Values joined by “and” are separate entries in the source; they are usually repeats but may differ in a detail not shown here. Equal values may be shown once. Read-outs that look alike come from different tables or passages of the source. Marks after values point to notes of the source that are not given here.

Assays:
[1] = 1H NMRD profiles and 17O NMR relaxometry in water; type: physicochemical; settings: for q: number of coordinated water molecules
Method: The magnetic‐field dependence of the longitudinal relaxation rate of water protons (^1H NMRD) were measured in aqueous solution by using a variable field relaxometer equipped with an HTS‐110 3T Metrology Cryogen‐free Superconducting Magnet (Mede, Italy), operating in the overall range of proton Larmor frequencies of 20–120 MHz (0.47–3.00 T). The measurements were performed using the standard inversion recovery sequence (20 experiments, 3 scans) with a 90° pulse width of 3.5 µs. The temperature was controlled with a Stelar VTC‐91 heater airflow. Additional points in the 0.01–10 MHz frequency range were collected on a Fast‐Field Cycling (FFC) Stelar SmarTracer Relaxometer. T 1 values at 500 MHz were collected on a Bruker Avance III NMR spectrometer operating at 11.7 T. The concentration of Gd^3+ in the solutions was determined by using bulk magnetic susceptibility (BMS) shift measurements performed at 11.7 T. For the measurements in the biological fluid, lyophilized plasma matrix (Siemens Healthcare) was added to 1 mL of [Gd(ent‐L2)] (1.0 mM) or Seronorm (Sero) was solubilized in 5 mL [Gd(ent‐L2)] (1.0 mM) solution. ^1H NMRD of the final solution was measured at 310 K.
The spectra were acquired on a Bruker Avance III spectrometer (11.7 T) using a 5 mm probe under temperature control. An aqueous solution of the complexes ([GdL] = 10–15 mM) was enriched to ca. 2.0% of the ^17O isotope (Cambridge Isotope). The transverse relaxation rates (R 2) were measured as a function of temperature in the 278−350 K range. The simultaneous fit of ^1H NMRD and ^17O NMR profiles data was performed using the Micromath Scientist software (version 2.0, Salt Lake City, UT, USA).

[2] = Kinetic inertness: dissociation of Gd(III)-complexes in 0.01–1.0 M HCl followed by HPLC; type: physicochemical; settings: for k d at pH = 7.4: dissociation rate calculated at pH 7.4, 25 °C; for k1: proton-assisted dissociation, [H+]≤0.15 M: [Na+]+[H+]=0.15 M
Description: The kinetic inertness of the Gd(III)‐complexes with the different isomers formed by rac‐L1 and rac‐L2 was characterized by the rates of the dissociation reactions taking place in 0.01–1.0 M HCl solution. The dissociation reactions were followed by measuring the integral values of the Gd(III)‐complexes with the different isomers of rac‐L1 and rac‐L2 ligands with HPLC. The conditions of the HPLC experiments for the kinetic studies of the Gd(III)‐complexes with rac‐L1 and rac‐L2 ligands are summarized in Tables S1 and S2 (Supporting Information), respectively. The samples were kept at 25 °C in a well‐closed vessel. For the HPLC analysis, 100 µL samples were withdrawn from the solutions. The measurements were performed with 0.2 mM solution of Gd(III)‐complexes. The pseudo‐first‐order rate constants (k d) were calculated by fitting the HPLC integral – t data pairs to Equation (1). (1) At=Ar−Ave^−kdt+Av where A r, A v, and A t are the integral values of the reactants, the product, and reaction time t. The temperature was maintained at 25 °C and the ionic strength of the solutions was kept constant at [H^+]≤0.15 M, [HCl]+[NaCl] = 0.15 M. The calculation of the kinetic parameters was performed by the fitting of the absorbance – time and relaxation rate – time data pairs with the Micromath Scientist computer program (version 2.0, Salt Lake City, UT, USA).
The dissociation reactions of Gd(III)-complexes with the different isomers formed by rac-L1 and rac-L2 have been studied by HPLC method (Tables S1 and S2) at 25 °C in 0.01 – 1.0 M HCl solution to guarantee the pseudo-first-order kinetic condition. Area values as a function of time for the dissociation reactions of Gd(III)-complexes formed with the different stereoisomers of rac-L1 obtained at 25 °C in 1.0 M HCl solution are shown in Figure S48.
In the presence of HCl excess, the decomplexation of Gd(III)-complexes can be treated as a pseudo-first-order process and the reaction rate can be expressed by Equation (S9), where kd is a pseudo-first-order rate constant, [GdL]t and [GdL]tot are the concentrations of the GdL species at time t and the total concentration of the complex, respectively.
The rates of the dissociation reactions have been studied at different concentrations of HCl ([HCl]=0.01 – 1.0 M, 25 °C). The kd values obtained for the Gd(III)-complexes with the different isomers of rac-L1 and rac-L2 ligands as a function of [H^+] are shown in Figures S49 and S50.
The obtained kd pseudo-first order rate constants are directly proportional to the concentration of H^+. The increase in the kd values with increasing concentration of H^+ can be interpreted in terms of the proton assisted dissociation of Gd(III)-complexes. […] The proton assisted dissociation of Gd(III)-complexes might be explained by the equilibrium formation of a protonated *Gd(HL) intermediate (Equation (S11)), which dissociates spontaneously (Equation (12)).
where k0, and k1 = kGdHL×K^HGdHL are the rate constants characterizing the spontaneous and proton-assisted dissociation of Gd(III)-complexes. The protonation constant (K^HGdHL) of Gd(DOTA)-like complexes are very small (Gd(DOTA): K^HGdHL =14).^[22] By considering very low protonation constant of Gd(III)-complexes with A, C and D isomers of rac-L1 and A’, C’ and D’ isomers of rac-L2 ligands (K^HGdHL<<10), the denominator of Equation (S14) (1>> K^HGdHL [H^+]) can be neglected, so Equation (S14) can be simplified in the form of Equation (S15). The k0 and k1 values of the Gd(III) complexes with A, C and D isomers of rac-L1, and A’, C’ and D’ isomers of rac-L2 ligands have been calculated by fitting of the kinetic data (Figures S49 and S50) to Equation (S15).
The k1 rate and logK^HGdHL protonation constants characterizing the acid-catalyzed decomplexation of Gd(III)-complexes formed with the different stereoisomers of rac-L1 and rac-L2 are presented and compared with those of [Gd(PCTA)], [Gd(DOTA)]^-, [Gd(HP-DO3A)] and [Gd(BT-DO3A)] in Table S19.

[3] = 25 °C, cited from earlier work
[4] = 0.15 M NaCl, 25 °C; cited from earlier work

O=C([O-])CCC(C(=O)[O-])N1CCN(C(CCC(=O)[O-])C(=O)[O-])Cc2cccc(n2)CN(C(CCC(=O)[O-])C(=O)[O-])CC1.[Gd+3] (mixture of isomers) [[Gd(rac‐L1)]^3−] [2,2’,2’’-[3,6,9,15-tetraazabicyclo[9.3.1]pentadeca-1(15),11,13-triene-3,6,9-triyl]tris(4-carboxybutanoate)gadolinium]
^298K r 1 [1.5 T] ([1]; 298 K, 1.5 T, water): 9.4 mM⁻¹ s⁻¹
r 1 ^310K [1.5 T] ([1]; 310 K, 1.5 T, water): 6.8 mM⁻¹ s⁻¹
τ R ([1]; Table 2): 98 ± 2 ps
τ R ([1]; Table S20, 298 K): 98±2 ps
ER ([1]; fixed in the fitting procedure): 22^b) kJ mol^-1
q ([1]; fixed in the fitting procedure): 2
q ([1]; fixed in the fitting procedure, listed as [Gd(rac-L1)]^3-): 2^b)
τ M1 ([1]; residence time of coordinated water 1, 298 K): 103 ± 5 ns
τ M2 ([1]; residence time of coordinated water 2, 298 K): 14 ± 2 ns

O=C(CC[C@H](C(=O)[O-])N1CCN([C@@H](CCC(=O)NCC(O)CO)C(=O)[O-])CCN([C@H](CCC(=O)NCC(O)CO)C(=O)[O-])Cc2cccc(n2)C1)NCC(O)CO.[Gd+3] (relative stereo) [[Gd(rac-L2)] A’ (RSR/SRS)]
k d at pH = 7.4 [2]: 1.85×10^-12 s^−1
k d at pH = 7.4 ([2]; listed as RSR/SRS (A′)): 1.85 × 10^−12 s^−1
k1 ([2]; 25 °C): (4.7±0.1) ×10^-5 M^-1s^-1

O=C(O)CCC(C(=O)[O-])N1CCN(C(CCC(=O)O)C(=O)[O-])Cc2cccc(n2)CN(C(CCC(=O)O)C(=O)[O-])CC1.[Gd+3] (racemic) [[Gd(rac-L1)] A (RSR/SRS)]
k d at pH = 7.4 [2]: 1.84×10^-12 s^−1
k d at pH = 7.4 ([2]; listed as RSR/SRS (A)): 1.84 × 10^−12 s^−1
k1 ([2]; 25 °C): (4.6±0.2) ×10^-5 M^-1s^-1

O=C(O)CCC(C(=O)[O-])N1CCN(C(CCC(=O)O)C(=O)[O-])Cc2cccc(n2)CN(C(CCC(=O)O)C(=O)[O-])CC1.[Gd+3] (racemic) [[Gd(rac-L1)] D (RRS/SSR)]
k d at pH = 7.4 [2]: 4.95×10^-13 s^−1
k d at pH = 7.4 ([2]; listed as RRS/SSR (D)): 4.95 × 10^−13 s^−1
k1 ([2]; 25 °C): (1.2±0.1) ×10^-5 M^-1s^-1

O=C([O-])CN1CCN(CC(=O)[O-])Cc2cccc(n2)CN(CC(=O)[O-])CC1.[Eu+3] [[Eu(PCTA)]]
K^HGd(HL) ([3]; 1.0 M KCl): 1.72 M⁻¹
k d at pH = 7.4 ([3]; pH 7.4, 1.0 M KCl): 2.0 × 10^−11 ([Eu(PCTA)]) s^−1 and 2.0×10^-11 s^−1

O=C(O)CCC(C(=O)[O-])N1CCN(C(CCC(=O)O)C(=O)[O-])Cc2cccc(n2)CN(C(CCC(=O)O)C(=O)[O-])CC1.[Gd+3] (racemic) [[Gd(rac-L1)] B (RSS/SRR)]
k d at pH = 7.4 [2]: 1.28×10^-11 s^−1
k d at pH = 7.4 ([2]; listed as RSS/SRR (B)): 1.28 × 10^−11 s^−1
k1 ([2]; 25 °C): (3.2±0.4) ×10^-4 M^-1s^-1
K^HGd(HL) ([2]; protonation constant of the *Gd(HL) intermediate, 25 °C): 2.0 ± 0.4 M⁻¹

CC1(N(CC(=O)O)CC(=O)O)CN(CC(=O)O)CCN(CC(=O)O)C1 [AAZTA]
logK1^H [4]: 10.06
logK2^H [4]: 6.50
logK3^H [4]: 3.77
logK4^H [4]: 2.33
logK5^H [4]: 1.51

CC(O)CN1CCN(CC(=O)[O-])CCN(CC(=O)[O-])CCN(CC(=O)[O-])CC1.[Gd+3] (stereo not drawn) [[Gd(HP-DO3A)]]
k1 ([3]; 0.15 M NaCl): 0.00029 M⁻¹ s⁻¹
k1 [3]: 0.00026 M⁻¹ s⁻¹
k d at pH = 7.4 ([3]; pH 7.4, 0.1 M NaCl): 1.0×10^-11 s^−1
k d at pH = 7.4 ([3]; pH 7.4, 0.15 M NaCl): 1.2×10^-11 s^−1
